From patent US8067424B2, “Selective inhibitors for cyclin-dependent kinases” (Emory University, priority 2007, dated 2011)
Read-outs that look alike come from different tables or passages of the source.

Columns and labels:
Type in all cases: biochemical
MELK = MELK (Homo sapiens, UniProt Q14680); test: Kinase screen: MELK assay
Protocol: (§1) Generally, the same procedure was used for all assays. Since the total assay volume was 25.5 microliters, 0.5 microliters of inhibitors at 51× assay concentration were added to the plates before any other addition.
(§2) The basic procedure was to add 0.5 microliters inhibitor/control in DMSO to plate. Fifteen microliters of enzyme/substrate/buffer mix were added and incubated for 5 min. Ten microliters MgATP at the relevant concentration were added and incubated for 30 min. The assay was stopped by adding 5 microliters of 3% orthophosphoric acid. The assay was transferred to a p81 filter plate and read in a scintillation counter of 30 sec/well. Note that this assay procedure was not followed for MKK1, which instead involved a two-step assay, and PKC alpha, which required the addition of lipid vesicles.
(§3) MELK assay: MELK (5-20 mU diluted in 50 mM Tris pH 7.5, 0.1 mM EGTA, 0.1% b-mercaptoethanol, 1 mg/ml BSA) was assayed against a substrate peptide ([…]) (SEQ ID NO: 33) in a final volume of 25.5 μl containing 50 mM Tris pH 7.5, 0.05% b-mercaptoethanol, 200 μM substrate peptide, 10 mM magnesium acetate and 0.05 mM [33P-g-ATP] (50-1000 cpm/pmole) and incubated for 30 min at room temperature. Assays were stopped by addition of 5 μl of 0.5 M (3%) orthophosphoric acid and then harvested onto P81 Unifilter plates with a wash buffer of 50 mM orthophosphoric acid.

IR-HIS = target: T1, IR-HIS (Homo sapiens, UniProt P06213); test: Kinase screen: IR-HIS assay; settings: 10 micromolar compound; for remaining activity at 10 µM: read-out: mean activity remaining (as a percentage of the original activity), IR-HIS
T1 construct: His
T1 sequence (P06213 28-1382): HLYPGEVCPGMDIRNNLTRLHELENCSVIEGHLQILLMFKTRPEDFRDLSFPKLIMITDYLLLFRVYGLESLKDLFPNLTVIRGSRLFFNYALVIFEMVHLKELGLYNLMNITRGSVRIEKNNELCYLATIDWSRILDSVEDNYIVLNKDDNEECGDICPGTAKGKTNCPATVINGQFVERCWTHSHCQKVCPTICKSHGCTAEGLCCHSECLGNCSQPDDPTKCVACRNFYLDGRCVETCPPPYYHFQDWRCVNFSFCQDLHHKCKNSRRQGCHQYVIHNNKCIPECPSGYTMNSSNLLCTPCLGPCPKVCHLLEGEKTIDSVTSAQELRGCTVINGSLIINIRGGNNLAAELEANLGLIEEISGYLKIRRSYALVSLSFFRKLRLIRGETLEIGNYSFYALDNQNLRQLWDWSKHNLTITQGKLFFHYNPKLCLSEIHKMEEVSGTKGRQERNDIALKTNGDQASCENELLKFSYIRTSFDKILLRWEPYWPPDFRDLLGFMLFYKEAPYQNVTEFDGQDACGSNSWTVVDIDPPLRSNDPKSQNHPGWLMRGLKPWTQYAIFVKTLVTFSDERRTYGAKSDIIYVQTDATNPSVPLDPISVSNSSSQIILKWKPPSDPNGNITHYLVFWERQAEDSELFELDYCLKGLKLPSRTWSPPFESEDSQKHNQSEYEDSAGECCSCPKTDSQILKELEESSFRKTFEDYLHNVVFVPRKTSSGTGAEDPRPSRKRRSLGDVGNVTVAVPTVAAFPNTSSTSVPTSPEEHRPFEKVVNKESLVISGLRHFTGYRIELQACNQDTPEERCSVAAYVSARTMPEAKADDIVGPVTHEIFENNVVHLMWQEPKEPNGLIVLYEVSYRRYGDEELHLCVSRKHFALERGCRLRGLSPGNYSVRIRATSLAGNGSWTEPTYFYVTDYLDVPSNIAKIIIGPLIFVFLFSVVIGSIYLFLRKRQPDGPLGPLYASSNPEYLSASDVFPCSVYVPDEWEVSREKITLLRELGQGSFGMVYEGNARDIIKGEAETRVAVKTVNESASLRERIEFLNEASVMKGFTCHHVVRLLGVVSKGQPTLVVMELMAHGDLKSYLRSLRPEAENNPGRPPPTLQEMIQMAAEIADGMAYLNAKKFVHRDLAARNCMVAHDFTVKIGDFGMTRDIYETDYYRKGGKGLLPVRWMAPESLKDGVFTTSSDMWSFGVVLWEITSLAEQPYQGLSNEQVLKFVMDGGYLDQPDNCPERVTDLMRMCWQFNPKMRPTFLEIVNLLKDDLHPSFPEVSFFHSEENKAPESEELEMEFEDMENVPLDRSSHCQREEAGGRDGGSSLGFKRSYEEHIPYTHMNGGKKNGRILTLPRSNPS
Protocol: as §1, §2
as §3, with “IR-HIS” for “MELK”, “EGTA,” for “EGTA, 0.1% b-mercaptoethanol,”, “36)” for “33)”, “300” for “0.05% b-mercaptoethanol, 200”, “0.02” for “0.05”

JNK1 = JNK1 (Homo sapiens, UniProt P45983); test: Kinase screen: JNK1a1/SAPK1c assay
Sequence of JNK1 (P45983 1-384 isoform P45983-2, species assumed): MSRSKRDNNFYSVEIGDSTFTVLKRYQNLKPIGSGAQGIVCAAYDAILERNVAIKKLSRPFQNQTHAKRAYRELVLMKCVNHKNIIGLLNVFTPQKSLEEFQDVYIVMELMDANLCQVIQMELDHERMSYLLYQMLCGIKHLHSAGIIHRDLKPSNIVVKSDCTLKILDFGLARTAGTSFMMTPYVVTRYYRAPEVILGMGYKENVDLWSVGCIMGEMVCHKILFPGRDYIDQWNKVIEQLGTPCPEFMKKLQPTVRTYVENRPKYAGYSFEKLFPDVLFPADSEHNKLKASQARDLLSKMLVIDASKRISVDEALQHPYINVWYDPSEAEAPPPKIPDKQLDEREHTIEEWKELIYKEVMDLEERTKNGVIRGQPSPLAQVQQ
Protocol: as §1, §2
JNK1a1/SAPK1c assay: JNK1a1/SAPK1c (5-20 mU diluted in 50 mM Tris pH 7.5, 0.1 mM EGTA, 1 mg/ml BSA, 0.1% b-mercaptoethanol) was assayed against ATF2 (activating transcription factor in a final volume of 25.5 μl in 50 mM Tris pH 7.5, 0.1 mM EGTA, 0.1% b-Mercaptoethanol, ATF2 (3 μM), 10 mM magnesium acetate and 0.02 mM [33P-g-ATP] (500-1000 cpm/pmole) and incubated for 30 min at room temperature. Assays were stopped by addition of 5 μl of 0.5 M (3%) orthophosphoric acid and then harvested onto P81 Unifilter plates with a wash buffer of 50 mM orthophosphoric acid.

CK2 = test: Kinase screen: CK2 assay; settings: for mean activity remaining (as a percentage of the original activity), CK 2: 10 micromolar compound
Protocol: as §2, with “Generally, the same procedure was used for all assays. Since the total assay volume was 25.5 microliters, 0.5 microliters of inhibitors at 51× assay concentration were added to the plates before any other addition. […] The basic” for “The basic”, “30 min. […] The assay” for “30 min. The assay was stopped by adding 5 microliters of 3% orthophosphoric acid. The assay”, “lipid vesicles. CK2 assay: […]” for “lipid vesicles.”

SRPK1 = SRPK1 (Homo sapiens, UniProt Q96SB4); test: Kinase screen: SRPK1 assay
Sequence of SRPK1 (Q96SB4 whole entry, species assumed): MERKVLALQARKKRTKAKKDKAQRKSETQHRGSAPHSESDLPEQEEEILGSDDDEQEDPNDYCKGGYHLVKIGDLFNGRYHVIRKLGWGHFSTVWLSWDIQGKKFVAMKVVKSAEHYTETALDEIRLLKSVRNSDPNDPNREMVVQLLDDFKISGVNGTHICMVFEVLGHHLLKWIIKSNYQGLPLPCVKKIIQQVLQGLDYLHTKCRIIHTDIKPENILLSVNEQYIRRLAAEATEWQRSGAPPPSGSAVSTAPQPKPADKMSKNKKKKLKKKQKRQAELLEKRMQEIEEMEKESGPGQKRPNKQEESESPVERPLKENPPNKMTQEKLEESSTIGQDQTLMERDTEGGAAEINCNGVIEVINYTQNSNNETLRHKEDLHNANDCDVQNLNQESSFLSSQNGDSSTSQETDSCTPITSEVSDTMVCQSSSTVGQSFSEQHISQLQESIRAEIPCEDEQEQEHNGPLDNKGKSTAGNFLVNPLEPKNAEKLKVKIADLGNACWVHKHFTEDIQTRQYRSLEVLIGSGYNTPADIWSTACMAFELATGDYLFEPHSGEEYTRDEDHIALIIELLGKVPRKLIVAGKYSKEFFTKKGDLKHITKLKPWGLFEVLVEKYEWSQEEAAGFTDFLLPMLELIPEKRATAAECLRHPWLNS
Protocol: as §1, §2
SRPK1 assay: 5-20 mU of SRPK1 (diluted in 50 mM Tris (pH 7.5), 0.1 mM EGTA, 1 mg/ml BSA, 0.1%, b-Mercaptoethanol) was assayed against substrate peptide ([…]) (SEQ ID NO: 25) in a final volume of 25.5 μl containing 50 mM Tris (pH 7.5), 0.1 mM EGTA, 0.1%, b-Mercaptoethanol, 300 μM substrate peptide, 10 mM magnesium acetate and 0.05 mM [33P-g-ATP] (500-1000 cpm/pmole) and incubated for 30 mins at room temperature. Assays were stopped by addition of 5 μl of 0.5M (3%) orthophosphoric acid. Assays were harvested onto P81 Unifilter plates using a wash buffer of 50 mM orthophosphoric acid.

CDK 5 = CDK 5 (Homo sapiens, UniProt Q00535); test: CDK5 in vitro kinase inhibition (protocol similar to Example 14); settings: for remaining activity at 0.1 µM: 100 nM, mean of three (standard deviation), read-out: CDK5 % remaining kinase activity after incubation with 100 nM of compound; for IC50: Table 7, mean of three experiments
Sequence of CDK 5 (Q00535 whole entry): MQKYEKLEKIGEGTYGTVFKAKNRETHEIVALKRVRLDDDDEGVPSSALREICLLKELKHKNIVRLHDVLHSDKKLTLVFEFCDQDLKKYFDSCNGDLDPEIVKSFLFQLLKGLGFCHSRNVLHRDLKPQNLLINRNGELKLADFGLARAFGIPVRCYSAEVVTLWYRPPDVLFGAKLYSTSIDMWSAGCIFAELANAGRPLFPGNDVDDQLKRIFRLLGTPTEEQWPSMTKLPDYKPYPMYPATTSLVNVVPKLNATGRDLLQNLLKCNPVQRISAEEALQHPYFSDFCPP
Sequence of CDK 5 (Q15078 whole entry partner): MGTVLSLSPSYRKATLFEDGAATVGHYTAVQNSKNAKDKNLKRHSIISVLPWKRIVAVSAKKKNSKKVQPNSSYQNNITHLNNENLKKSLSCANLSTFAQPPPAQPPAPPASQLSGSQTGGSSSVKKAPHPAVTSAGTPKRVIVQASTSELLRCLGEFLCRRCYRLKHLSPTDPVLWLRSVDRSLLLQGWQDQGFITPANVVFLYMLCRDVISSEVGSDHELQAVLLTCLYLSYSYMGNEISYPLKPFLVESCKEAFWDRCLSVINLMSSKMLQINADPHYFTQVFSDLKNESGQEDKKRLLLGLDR

[1] = 10 micromolar compound, read-out: mean activity remaining (as a percentage of the original activity), MELK
[2] = 10 micromolar compound, read-out: mean activity remaining (as a percentage of the original activity), JNK1
[3] = 10 micromolar compound, read-out: mean activity remaining (as a percentage of the original activity), SRPK1

Sequence of MELK (Q14680 whole entry, species assumed): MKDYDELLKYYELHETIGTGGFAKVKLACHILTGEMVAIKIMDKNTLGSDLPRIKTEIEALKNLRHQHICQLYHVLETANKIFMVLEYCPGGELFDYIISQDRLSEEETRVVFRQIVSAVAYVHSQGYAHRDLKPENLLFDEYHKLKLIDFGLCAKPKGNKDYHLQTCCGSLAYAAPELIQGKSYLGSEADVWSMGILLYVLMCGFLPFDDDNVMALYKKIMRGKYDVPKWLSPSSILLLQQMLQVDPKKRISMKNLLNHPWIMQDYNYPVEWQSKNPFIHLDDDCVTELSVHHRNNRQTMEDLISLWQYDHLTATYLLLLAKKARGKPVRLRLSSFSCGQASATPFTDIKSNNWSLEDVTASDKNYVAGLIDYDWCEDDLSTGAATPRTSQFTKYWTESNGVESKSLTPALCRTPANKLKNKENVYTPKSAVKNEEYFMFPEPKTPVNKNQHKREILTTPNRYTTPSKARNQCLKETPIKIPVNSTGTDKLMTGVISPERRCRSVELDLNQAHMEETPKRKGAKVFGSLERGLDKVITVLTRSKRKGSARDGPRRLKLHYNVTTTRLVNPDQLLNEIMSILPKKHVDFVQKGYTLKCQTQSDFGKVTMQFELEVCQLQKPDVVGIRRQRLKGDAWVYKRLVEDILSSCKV

Compound | mean activity remaining (as a percentage of the original activity), MELK (MELK; 10 micromolar compound) | mean activity remaining (as a percentage of the original activity), IR-HIS (IR-HIS) | mean activity remaining (as a percentage of the original activity), JNK1 (JNK1; 10 micromolar compound) | mean activity remaining (as a percentage of the original activity), CK 2 (CK2) | mean activity remaining (as a percentage of the original activity), SRPK1 (SRPK1; 10 micromolar compound) | remaining activity at 10 µM (MELK; MELK, 10 μM, read-out: Mean Remaining Enzyme Activity (%)) | remaining activity at 10 µM (JNK1; JNK1, 10 μM, read-out: Mean Remaining Enzyme Activity (%)) | Mean Remaining Enzyme Activity (%) (CK2; CK2, 10 μM) | remaining activity at 10 µM (SRPK1; SRPK1, 10 μM, read-out: Mean Remaining Enzyme Activity (%)) | remaining activity at 10 µM (MELK; [1]) | remaining activity at 10 µM (IR-HIS) | remaining activity at 10 µM (JNK1; [2]) | remaining activity at 10 µM (SRPK1; [3]) | remaining activity at 0.1 µM (CDK 5) | IC50 (CDK 5)
CC(C)c1cnn2c(NCc3ccccc3F)cc(NCCCCCN)nc12 [ICEC-0232] | 62% | 58% | 87% | 92% | 38% |  |  |  |  |  |  |  |  |  | 
CC(C)c1cnn2c(NCc3ccccc3)cc(NCCCCCCCN)nc12 [BS-181] |  |  |  |  |  | 63% | 100% | 108% | 44% |  |  |  |  |  | 
CC[C@H](CO)Nc1cc(NCc2ccccc2)n2ncc(C(C)C)c2n1 [ICEC0067] |  |  |  | 87% |  |  |  |  |  | 75% | 78% | 98% | 50% | 84% | 
C=C[C@H](CO)Nc1cc(NCc2ccccc2)n2ncc(C(C)C)c2n1 [ICEC0065] |  |  |  | 94% |  |  |  |  |  | 90% | 71% | 95% | 84% | 83% | > 1000 nM
CC(C)c1cnn2c(NCc3ccccc3)cc(N[C@@H](CO)[C@H](O)CO)nc12 [ICEC0318, (3S)-3-(7-(Benzylamino)-3-isopropylpyrazolo[1,5-a]pyrimidin-5-ylamino)butane-1,2,4-triol] |  |  |  | 89% |  |  |  |  |  | 88% | 70% | 93% | 62% | 14% | 30 nM
